From patent publication US6784155B1, “Inhibitor and stimulator of stem cell proliferation and uses thereof” (Wellstat Therapeutics Corporation, priority 1996, dated 2004) come the findings set out here.

No end group written: not given here.

The subject of one series is CFU-GEMM. Nature of the series: CFU-GEMM cycling assay, mobilized human peripheral blood. Format: cell-based. On the procedure: Peripheral blood was obtained from breast cancer patients undergoing peripheral stem cell mobilization with cyclophosphamide and G-CSF according to standard protocols. Red blood cells were removed with FicolU Hypaque (cells were diluted 1:1 with IMDM and 20 ml layered on top of 16 ml Ficoll and centrifuged at 800 g for 30 minutes; mononuclear cells were removed from the interphase and washed twice in IMDM). In one case mononuclear cells were stored frozen in liquid nitrogen before assay. The mononuclear cells were plated for the CFU-GEMM cycling assay as in Example 26 except that 2.5-5×10^5 cells were plated per dish.

The nature of series [1]: Distribution of ubiquitin fusion proteins between soluble fraction and precipitate of E. coli lysate (SDS-PAGE). As to conditions: after centrifugation of the bacterial lysate. Format: physicochemical. As for the experimental part: To obtain protein for assay, 100 ml starter cultures in 250 ml shake flasks were grown from single colonies by overnight incubation (16-20 hours) in 2×YT medium with ampicillin (100 μg/ml), neomycin (10 μg/ml) and 1% glucose. Shaker flask cultures were maintained at 30° C. and 250 rpm in a New Brunswick environmental shaker incubator. The next morning the culture was diluted to liter with medium Cells were induced by IPTG addition to 1 mM (final dilution) at OD600=0.5 and harvested at OD600=0.8 by centrifugation. The harvested cells were resuspended in hypotonic lysis buffer (100 μl of 50 mM Tris, pH 10.0). The bacterial cells were lysed by subjecting the suspension to three cycles of freeze-thaw (dry ice-ethanol bath for freezing and 60° C. for thawing). The suspension was then sonicated for 10 min and centrifuged at 12,000 g for 10 min. The resulting supernatant was designated as “S1”. The cell pellet was resuspended in 50 mM Tris, pH10 and 2×SDS tricine loading buffer (Novex, San Diego, Calif.) (1:1). The mixture was then heated at 95° C. for 15 min and centrifuged at 12,000 g for 10 min. The portion of the precipitate capable of being resolubilized in this manner was called “P1”. The portion of the precipitate derived from the remaining pellet was called “P2”. P2 was resuspended in loading buffer as for P1. Samples from S1, P1 and P2 were analyzed by SDS-PAGE. […]

For series [2], the system named is cobblestone area forming cells (CAFC). Nature of the series: Cobblestone assay (CAFC). Format: cell-based, mouse. On the procedure:
The cobblestone assay was conducted as described by Ploemacher and colleagues (Ploemacher et al., Blood 74:2755-63, 1989; van der Sluijs et al., Exp. Hematol. 18:893-6, 1990; Ploemacher et al., Blood 78:2527-33, 1991; Ploemacher et al., J. Tiss. Cult. Meth. 13:63-68, 1991; Down and Ploemacher, Exp. Hematol. 21:213-21, 1993). The cobblestone assay measures the appearance of groups of cells (or “cobblestones”) within a monolayer of stromal cells. Very primitive stem cells will not form colonies in soft agar but do form cobblestones in the presence of a stromal monolayer. The cells which form cobblestones are referred to as “cobblestone area forming cells” (CAFC). The more differentiated (e.g., GM-CFC) progenitors form transient cobblestones which appear and then disappear within the first few weeks of culture whereas more primitive stem cells (e.g., long-term repopulating cells) form cobblestones which appear only after 4-5 weeks of culture. Thus, CAFC forming on days 7-14 of culture are enriched in CFU-GM, CAFC forming on […] are enriched in CFU-MIX, and CAFC forming on days 28-35 are enriched in long-term repopulating cells. […]
The frequency of cobblestone area forming cells (CAFC) was calculated as previously described (Ploemacher et al., Blood 78:2527-33, 1991; Ploemacher et al., J. Tiss. Cult. Meth. 13:63-68, 1991; Breems et al., Leukemia 8:1095-104, 1994). […]

The subject of series [3] is CFU-MIX. Nature of the series: Stimulation of cycling of quiescent murine stem cells after i.v. administration. As to conditions: Table 43, untreated B6D2F1 mice, 150 μg/mouse i.v., marrow 24 hours later. The format is in vivo. On the procedure:
Human alpha hemoglobin was injected i.v. into untreated B6D2F1 mice. 24 hours later, the mice were sacrificed, bone marrow collected from femurs and the CFU-MIX assay conducted as in Example 24.

Series [4] concerns CFU-MIX. Nature of the series: Stimulation of cycling of quiescent murine stem cells, CFU-MIX cycling assay in vitro. The format is cell-based, mouse. The following applies: Table 44, 100 ng/ml, alone.

On to “FPHFDLSHGSAQV [Peptide 43-55, amino acids 43-55 of human alpha hemoglobin]”, for which the “% Kill” value was determined as 0% with CFU-GEMM (Table 35, Patient #2, 10 ng/ml); 23% with CFU-GEMM (Table 36, Patient #3, cells stored frozen before assay, 0.1 ng/ml); 0% in the series with CFU-GEMM (Table 36, Patient #3, cells stored frozen before assay, 1.0 ng/ml); 15% with CFU-GEMM (Table 36, Patient #3, cells stored frozen before assay, 10 ng/ml). Also, the “fraction of bacterial lysate containing the peptide” value in series [1] is listed as “contained in the soluble fraction”.
“Human alpha chain: purified, non-recombinant human alpha hemoglobin chain isolated by reversed-phase HPLC”: the “% Kill” value in the series with CFU-GEMM (Table 34, Patient #1, 100 ng/ml) came out at 0%; in the series with CFU-GEMM (Table 35, Patient #2, concentration printed only as (ng/ml)) it was 2%; in the series on CFU-MIX [3], 48%; with CFU-MIX [4], 48%. Also, the “increase of the proportion of late-forming CAFC” value in series [2] (cycling stem cells (testosterone propionate treated B6D2F1), 100 ng/10^6 cells, 4 hours) is reported as “approximately 5 fold”. The “effect on CAFC of non-cycling stem cells” value in series [2] (non-cycling stem cells) is “no effect”.
